Laboratory results as given in publication PMC12557365 (Journal of Medicinal Chemistry, 2025).
Like-named read-outs stand apart in the source and are kept apart here.

Columns and labels:
SARS-CoV-2 3CL^pro = SARS-CoV-2 3CL^pro (Severe acute respiratory syndrome coronavirus 2, UniProt P0DTD1); assay: biochemical; type: biochemical
SARS-CoV-2 variants = assay: microbe, parasite or virus in culture; type: cell-based
[1] = tested on: SARS-CoV-2 Omicron strains; assay: microbe, parasite or virus in culture; type: cell-based; details: Severe acute respiratory syndrome coronavirus 2, Epithelial cell, read-out: EC90 against the Omicron variants in hAECs
[2] = tested on: rgSARS-CoV-2 with 3CL^pro mutations; type: cell-based, SARS-CoV-2

Cc1cncc(-n2c(=O)c(Cc3cc(F)c(F)c(F)c3)c(N3CCCC3)n(CC#N)c2=O)c1 [Compound 5, 2-(3-(5-Methylpyridin-3-yl)-2,4-dioxo-6-(pyrrolidin-1-yl)-5-(3,4,5-trifluorobenzyl)-3,4-dihydropyrimidin-1(2H)-yl)-acetonitrile]
decrease in activity versus compound 4 (SARS-CoV-2 3CL^pro): > 10 -fold

N#CCn1c(N2CC3(C2)CC(F)(F)C3)c(-c2ccc(F)c(Cl)c2)c(=O)n(-c2cncc(Cl)c2)c1=O [Compound 17, [5-(3-Chloro-4-fluorophenyl)-3-(5-chloropyridin-3-yl)-6-(6,6-difluoro-2-azaspiro[3.3]-heptan-2-yl)-2,4-dioxo-3,4-dihydropyrimidin-1(2H)-yl]-acetonitrile]
EC50 (SARS-CoV-2 variants; Severe acute respiratory syndrome coronavirus 2, VeroE6/TMPRSS2, read-out: EC50 against various SARS-CoV-2 variants): 0.00227 to 0.0125 µM | EC90 [1]: 0.00231 to 0.00241 µM

CC(C)(C)[C@H](NC(=O)C(F)(F)F)C(=O)N1C[C@H]2[C@@H]([C@H]1C(=O)N[C@H](C#N)C[C@@H]1CCNC1=O)C2(C)C [nirmatrelvir, reference compound]
EC50 [2]: 3.15 ± 1.01 µM

CCC(CC)COC(=O)[C@H](C)N[P@](=O)(OC[C@H]1O[C@@](C#N)(c2ccc3c(N)ncnn23)[C@H](O)[C@@H]1O)Oc1ccccc1 [remdesivir]
EC50 [2]: 2.01 ± 0.08 µM

Cn1cnc(Cn2c(=O)[nH]/c(=N\c3cc4cn(C)nc4cc3Cl)n(Cc3cc(F)c(F)cc3F)c2=O)n1 [ensitrelvir]
EC50 (SARS-CoV-2 variants): 0.259 ± 0.041 µM
